Results from article PMC8878317, “Chemogenomics identifies acetyl-coenzyme A synthetase as a target for malaria treatment and prevention” (Cell Chemical Biology, 2022).

Test system: P. falciparum 3D7 parasites
Test: Metabolomic profiling of compound-treated parasites (LC/MS);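 for Metabolite data: 3-Phosphoglycerate: Log2 fold change in abundance versus untreated parasite controls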;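 for Metabolite data: Myo-Inositol: Log2 fold change in abundance versus untreated parasite controls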;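 for Metabolite data: N-Carbamoyl-L-Aspartate: Log2 fold change in abundance versus untreated parasite controls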;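 for Metabolite data: Nicotinate: Log2 fold change in abundance versus untreated parasite controls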
Type: cell-based
Design: Metabolite data: dTMP / Metabolite data: GMP / Metabolite data: S-Adenosyl-L-Homocysteine / Metabolite data: 1_3-Bisphosphoglyceric acid: scale not given here
Method: The metabolite extraction protocol was performed as described elsewhere ([Allman et al., 2016]). Briefly, 1 mL of trophozoites that were magnetically purified to a concentration of 1×10^8 parasites/mL were placed into wells with 4 mL of RPMI 1640 media and allowed to recover for one hour. […] The culture was incubated for another 2.5 hr. The culture was centrifuged and quenched with 90% methanol containing 0.25 μM ^13C,^15N-Labeled-Aspartate, vortexed, and centrifuged. The supernatant was transferred to a new tube and dried for storage. Prior to analysis, the samples were resuspended to a final concentration of 1×10^8 parasites/mL in a solution of 3% methanol:water containing 1 μM chlorpropamide as an internal standard.
The chromatographic conditions used in this experiment were performed with slight modifications from previous methods ([Zhang et al., 2018]). Briefly, a Waters XSelect HSS C18 column was used on a gradient reverse-phase chromatographic configuration with 97:3 water:methanol with 10 mM tributylamine and 15 mM acetic acid (solvent A) and methanol (solvent B). A Thermo-Scientific Exactive Plus Orbitrap mass spectrometer was operated in negative mode for the detection of the metabolites. Peak picking and integration were performed using El-Maven LC/MS data processing software. The peak data were then exported to Excel where metabolite areas were normalized to the internal standards, blank subtracted, and averaged by condition.

## Cc1cc(Nc2ccc3ccccc3c2)n2ncnc2n1 [DSM1]
  Metabolite data: 1_3-Bisphosphoglyceric acid: 0
  Metabolite data: 2_3-Diphosphoglyceric acid: -0.2991
  Metabolite data: 3-Phosphoglycerate: -0.4141
  Metabolite data: 4-Aminobutyrate: 0.009246
  Metabolite data: 4-Phosphopantothenate: -0.5403
  Metabolite data: 4-phosphopantetheine: 0
  Metabolite data: 5-aminopentanoic acid: 0
  Metabolite data: 5-phosphoribosyl-1-pyrophosphate: 0
  Metabolite data: 6-Phospho-D-Gluconate: -0.253
  Metabolite data: ADP-D-Glucose: -0.1243
  Metabolite data: Acetyl-CoA: -0.3243
  Metabolite data: Acetyllysine: -0.16
  Metabolite data: Aconitate: -0.837
  Metabolite data: CDP: -0.7937
  Metabolite data: CDP-Ethanolamine: -0.6098
  Metabolite data: CDP-choline: 0
  Metabolite data: CMP: -1.862
  Metabolite data: CTP: -3.137
  Metabolite data: Citrate/Isocitrate: -0.6885
  Metabolite data: Cyclic-AMP: -0.9051
  Metabolite data: Dihydroorotate: 2.672
  Metabolite data: FAD: -0.1625
  Metabolite data: FMN: -0.9996
  Metabolite data: Fructose-1,6-Bisphosphate: -0.4129
  Metabolite data: Fumarate: -1.402
  Metabolite data: GDP: 0.4797
  Metabolite data: GMP: 0.1634
  Metabolite data: GTP: -1.061
  Metabolite data: Glucose-1/6-Phosphate: -0.4979
  Metabolite data: Glutathione Disulfide: -0.412
  Metabolite data: Hexose: 0
  Metabolite data: Hydroxyisocaproic acid: 0
  Metabolite data: Indole: -0.8571
  Metabolite data: Ketoleucine: 0
  Metabolite data: L-arginino-succinate: 0
  Metabolite data: Lactate: -0.809
  Metabolite data: Malate: -1.549
  Metabolite data: Myo-Inositol: -1.331
  Metabolite data: N-Acetyl-Glutamate: -0.2257
  Metabolite data: N-Acetyl-L-Alanine: -0.1646
  Metabolite data: N-Acetyl-L-Ornithine: -0.5891
  Metabolite data: N-Carbamoyl-L-Aspartate: 2.4139
  Metabolite data: NAD+: -0.1986
  Metabolite data: NADH: 0.07835
  Metabolite data: NADP+: -0.1908
  Metabolite data: NADPH: -0.3915
  Metabolite data: Nicotinate: -0.7359
  Metabolite data: Octulose 8/1-Phosphate: -0.4585
  Metabolite data: Orotate: -2.835
  Metabolite data: PD: -0.209
  Metabolite data: PE: -0.4415
  Metabolite data: PEEK: -0.4847
  Metabolite data: Phenol Red: 0
  Metabolite data: Pyroglutamic acid: -0.2671
  Metabolite data: S-Adenosyl-L-Homocysteine: -0.1944
  Metabolite data: S-methyl-5'-thioadenosine: -0.4315
  Metabolite data: SD: -0.8655
  Metabolite data: Sedoheptulose Bisphosphate: -0.2224
  Metabolite data: UDP: -2.0359
  Metabolite data: UDP-D-Glucose: -0.2988
  Metabolite data: UDP-D-Glucuronate: -0.2168
  Metabolite data: UDP-N-Acetyl-Glucosamine: -0.4693
  Metabolite data: UMP: -2.06
  Metabolite data: UTP: -4.388
  Metabolite data: a-ketoglutarate: -0.7348
  Metabolite data: acetyl-aspartate: 0
  Metabolite data: arginine: 0
  Metabolite data: asparagine: 0
  Metabolite data: aspartate: 0
  Metabolite data: biotin: 0
  Metabolite data: chlorpropamide: 0
  Metabolite data: coenzyme A: 0
  Metabolite data: dAMP: 1.7179
  Metabolite data: dATP: -0.3141
  Metabolite data: dCDP: -0.1509
  Metabolite data: dCMP: -1.099
  Metabolite data: dCTP: -2.549
  Metabolite data: dGDP/ADP: 0.1331
  Metabolite data: dGMP/AMP: 0.02924
  Metabolite data: dGTP/ATP: 0
  Metabolite data: dTDP: -1.607
  Metabolite data: dTMP: -2.786
  Metabolite data: dTTP: -3.44
  Metabolite data: folate: 0
  Metabolite data: glucono-lactone: 0
  Metabolite data: glutamate: 0
  Metabolite data: glutamine: 0
  Metabolite data: glutathione: 0
  Metabolite data: histidine: 0
  Metabolite data: hydroxyproline/Aminolevulinate: 0
  Metabolite data: isoleucine: 0
  Metabolite data: leucine: 0
  Metabolite data: maleic acid: 0
  Metabolite data: methionine: 0
  Metabolite data: nicotinamide mononucleotide: 0
  Metabolite data: orotidine-5'-phosphate: 0
